For this assay, the target named is T1, human AMPK α2β2γ3 (Homo sapiens, UniProt O43741+P54646+Q9UGI9).
T1 construct: expressed in transfected cells; host or cells: HEK293AD cells, MaxCyte bulk electroporation
In words: Primary cellular assay: γ3 associated phospho-Thr172 AMPK detection (custom pAMPK Surefire AlphaLISA) in α2β2γ3 bulk transiently transfected HEK293 cells. It is filed as cell-based. Particulars: activation of human AMPK α2β2γ3 (γ3 pThr172 AMPK signal) in transiently transfected HEK293 cells, 20 minutes compound incubation; for Emax: 20 min, geometric mean of the asymptotic max, read-out: Assay GMean Asy. Max (%); for EC50: geometric mean EC50, read-out: Assay GMean EC50. Here is the method: Primary Cellular Assay—γ3 Associated Phospho-Thr172 AMPK Detection in α2β2γ3 Bulk Transiently Transfected HEK293 Cells
The cellular potencies of the compounds were evaluated using a custom pAMPK Surefire AlphaLISA designed to assess γ3 associated phospho-Thr172 AMPK and modulation by small molecules in AMPK α2β2γ3 transiently transfected HEK293 cells.
A pAMPK Surefire AlphaLISA (PE-ASLU-PAMPK) assay available through Perkin Elmer was modified to selectively assess γ3 pThr172 AMPK content (as opposed to total pThr172 AMPK) by labeling a γ3 antibody with a CaptSure™ tag and substituting it for the total α1c/α2 AMPK labeled antibodies in the kit. In the modified assay, the overall abundance of γ3 AMPK is recognized by the CaptSure γ3 antibody and the phosphorylated AMPK is recognized by biotinylated pThr172 antibody. Subsequent reactivity with streptavitin donor beads and anti CaptSure conjugated acceptor beads brings the molecules into close proximity. Upon excitation at 680 nm, the donor bead converts ambient oxygen to a more excited singlet state which reacts with the acceptor bead and emits light at 520 to 620 nm. The intensity of the signal is proportional to the level of γ3 associated pThr172 AMPK phosphorylation.
In short, AMPK-α2+β2+γ3 MaxCyte bulk-transfected HEK293AD cells were thawed in growth media (DMEM High glucose+10% FBS) in a collagen-coated T150 flask and the cells were allowed to adhere and grow overnight in a 37° C. incubator. The following day, the cells were harvested and resuspended in plating medium (DMEM Low glucose+10% FBS) at a concentration of 100,000 cells per mL and 50 μL of this cell suspension was added to all wells of a 384-well plate using a Multidrop Combi. The cells were allowed to adhere and grow for 2 days in a 37° C. incubator. On assay day, compounds were diluted in 100% dimethyl sulfoxide (DMSO) in a 11 dose, half log dilution scheme and spotted in the cell plates at 1000× the final concentration. Compound incubations were performed in plating media for 20 minutes. Cells were washed with PBS, lysed and the signal was generated by subsequent additions of RB1 reagent from the kit, 1:1000 CaptSure γ3 labeled antibody in 1× immunoassay buffer, Anti-CaptSure acceptor beads and Streptavitin donor beads at final concentration of […]. The γ3 pThr172 AMPK signal was developed using EnVision™ multilabel reader (Perkin Elmer) using Alphascreen settings. The fluorescence emission was used to calculate the % effect relative to the HPE (30 μM) and ZPE (DMSO). EC50 curves were generated with the ActivityBase software using the XLfit model 205 to determine EC50 and Emax values.
For screening purposes, bulk AMPK-α2+β2+γ3 MaxCyte bulk transfection into HEK293AD cells were generated to support SAR screening as follows.
HEK293AD cells were seeded into 10 flasks at 2.7×10^7 cells per flask. The following day 12 mL of Trypl E dissociation reagent were added to each flask to lift the cells and the cells were then spun at 300×g for 5 minutes. Cells were washed once in MaxCyte EP buffer and then resuspended in MaxCyte EP buffer at 1×10^8 cells per mL. For transfection, 500×10^6 cells in 500 μl MaxCyte EP buffer were placed in a CL1.1 Processing Assembly (electroporation cell) with 1 mg/mL ([…]) of each of the plasmids pcDNA3.1(+)-human AMPK alpha 2, pcDNA3.1(+)-human AMPK beta 2 and pcDNA3.1(+)-human AMPK gamma 3 and the electroporation was carried out on the MaxCyte STX using the HEK293 electroporation protocol. Following electroporation, cells were transferred to a T175 flask containing growth medium (DMEM High glucose+10% FBS) and allowed to recover for 25 minutes, then the cells were resuspended to final volume of 900 mL and distributed into 6XT175 flasks and allowed to adhere and grow overnight in a 37° C. incubator. […]
Background: In Alpha technology, singlet oxygen from a donor bead excites a nearby acceptor bead.

SMILES strings stand for the structures.

T1 sequence (P54646 whole entry): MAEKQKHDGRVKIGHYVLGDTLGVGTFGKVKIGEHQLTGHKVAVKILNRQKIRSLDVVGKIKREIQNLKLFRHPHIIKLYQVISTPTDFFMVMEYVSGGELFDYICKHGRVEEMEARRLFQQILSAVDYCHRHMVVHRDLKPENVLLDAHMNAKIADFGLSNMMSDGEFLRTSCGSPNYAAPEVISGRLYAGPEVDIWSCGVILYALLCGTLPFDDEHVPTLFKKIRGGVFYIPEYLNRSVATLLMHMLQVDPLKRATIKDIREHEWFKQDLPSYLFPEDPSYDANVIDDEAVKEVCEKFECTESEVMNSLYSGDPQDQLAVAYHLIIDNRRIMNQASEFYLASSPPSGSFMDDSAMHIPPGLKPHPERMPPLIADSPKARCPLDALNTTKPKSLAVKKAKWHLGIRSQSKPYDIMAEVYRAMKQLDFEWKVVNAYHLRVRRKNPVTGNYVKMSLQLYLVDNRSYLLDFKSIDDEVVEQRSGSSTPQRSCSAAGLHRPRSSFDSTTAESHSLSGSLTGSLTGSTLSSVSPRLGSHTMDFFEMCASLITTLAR
T1 sequence (O43741 whole entry): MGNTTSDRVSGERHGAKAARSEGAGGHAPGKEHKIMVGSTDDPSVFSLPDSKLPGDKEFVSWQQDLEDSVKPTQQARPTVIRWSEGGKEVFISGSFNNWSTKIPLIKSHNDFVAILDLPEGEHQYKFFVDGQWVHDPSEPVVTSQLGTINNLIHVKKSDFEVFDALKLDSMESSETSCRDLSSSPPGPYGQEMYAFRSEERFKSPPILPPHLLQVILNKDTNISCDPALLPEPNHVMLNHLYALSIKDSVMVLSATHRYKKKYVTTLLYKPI
T1 sequence (Q9UGI9 whole entry): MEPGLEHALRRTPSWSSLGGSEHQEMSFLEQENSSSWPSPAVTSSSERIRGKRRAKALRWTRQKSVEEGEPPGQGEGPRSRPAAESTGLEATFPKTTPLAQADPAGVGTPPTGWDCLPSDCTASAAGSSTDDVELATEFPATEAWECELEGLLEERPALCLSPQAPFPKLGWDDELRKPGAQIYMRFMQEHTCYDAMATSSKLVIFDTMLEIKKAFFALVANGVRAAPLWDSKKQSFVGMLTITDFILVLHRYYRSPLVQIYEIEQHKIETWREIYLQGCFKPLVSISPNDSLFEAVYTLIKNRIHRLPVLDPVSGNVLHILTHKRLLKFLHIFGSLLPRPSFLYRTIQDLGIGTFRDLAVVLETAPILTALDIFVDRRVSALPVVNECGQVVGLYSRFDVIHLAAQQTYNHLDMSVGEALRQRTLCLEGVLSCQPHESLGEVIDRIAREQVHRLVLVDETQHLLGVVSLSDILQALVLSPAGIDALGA

What is called EC50 is the concentration giving half of the maximal effect. For the compound `C[C@]1(c2cccc(Cl)c2F)CN(c2ccc([C@@H]3COCCN3)cc2)C(=O)c2cnc(NC3CN(C(=O)[C@@H]4C[C@@H]4F)C3)c(F)c21` [compound 53, (4R)-4-(3-chloro-2-fluorophenyl)-5-fluoro-6-({1-[(1S,2S)-2-fluorocyclopropane-1-carbonyl]azetidin-3-yl}amino)-4-methyl-2-{4-[(3R)-morpholin-3-yl]phenyl}-3,4-dihydro-2,7-naphthyridin-1(2H)-one], the Emax stood at 91% and the EC50 worked out at 0.131 µM.
On the same counts, the results for `CC1(c2cccc(Cl)c2F)CN(c2ncccc2F)C(=O)c2cnc(NC3CN(C(=O)N4CCC[C@@H]4CO)C3)nc21` (single isomer, unassigned) [compound 86] are 106% and 0.0346 µM.
On the same counts, the results for `C[C@]1(c2cccc(Cl)c2F)CN(c2ccc(N)cn2)C(=O)c2cnc(NC3CN(C(=O)[C@@H]4C[C@@H]4F)C3)c(F)c21` [Example 15, (4R)-2-(5-aminopyridin-2-yl)-4-(3-chloro-2-fluorophenyl)-5-fluoro-6-({1-[(1S,2S)-2-fluorocyclopropane-1-carbonyl]azetidin-3-yl}amino)-4-methyl-3,4-dihydro-2,7-naphthyridin-1(2H)-one] are 61.5% and 0.0315 µM.
On the same counts, the results for `CN(C(=O)CN1CC(Nc2ccc3c(c2F)C(C)(c2cccc(Cl)c2F)CN(c2nn(C)cc2F)C3=O)C1)C1CC1` (single isomer, unassigned) [Example 34, 2-(3-{[4-(3-Chloro-2-fluorophenyl)-5-fluoro-2-(4-fluoro-1-methyl-1H-pyrazol-3-yl)-4-methyl-1-oxo-1,2,3,4-tetrahydroisoquinolin-6-yl]amino}azetidin-1-yl)-N-cyclopropyl-N-methylacetamide] are 208% and 0.0317 µM.
`CNc1ccc(N2C[C@](C)(c3cccc(Cl)c3F)c3c(cnc(NC4CN(C(=O)[C@@H]5C[C@@H]5F)C4)c3F)C2=O)nc1` [compound 51, (4R)-4-(3-chloro-2-fluorophenyl)-5-fluoro-6-({1-[(1S,2S)-2-fluorocyclopropane-1-carbonyl]azetidin-3-yl}amino)-4-methyl-2-[5-(methylamino)pyridin-2-yl]-3,4-dihydro-2,7-naphthyridin-1(2H)-one]: the Emax is 63.2% and the EC50 worked out at 0.0491 µM.
As to `C[C@]1(c2cccc(Cl)c2F)CN(c2cc(OC(F)F)ccn2)C(=O)c2cnc(NC3CN(C(=O)[C@@H]4C[C@@H]4F)C3)c(F)c21` [compound 55, (4R)-4-(3-chloro-2-fluorophenyl)-2-[4-(difluoromethoxy)pyridin-2-yl]-5-fluoro-6-({1-[(1S,2S)-2-fluorocyclopropane-1-carbonyl]azetidin-3-yl}amino)-4-methyl-3,4-dihydro-2,7-naphthyridin-1(2H)-one], the Emax amounted to 30.9% and the EC50 came out at 0.024 µM.
On the same counts, the results for `Cn1cc(F)c(N2C[C@](C)(c3cccc(Cl)c3F)c3c(cnc(NC4CN(C(=O)C5CCC(F)(F)CN5)C4)c3F)C2=O)n1` (single isomer, unassigned) [compound 95] are 78% and 0.125 µM.
On the same counts, the results for `CC1(c2cccc(Cl)c2F)CN(c2ncccc2F)C(=O)c2cnc(NC3CN(C(=O)C4(O)CC4)C3)nc21` (single isomer, unassigned) [Example 27, 8-(3-Chloro-2-fluorophenyl)-6-(3-fluoropyridin-2-yl)-2-{[1-(1-hydroxycyclopropane-1-carbonyl)azetidin-3-yl]amino}-8-methyl-7,8-dihydropyrido[4,3-d]pyrimidin-5(6H)-one] are 174% and 0.177 µM.
As for `Cn1cc(F)c(N2C[C@](C)(c3cccc(Cl)c3F)c3c(cnc(NC4CN(C(=O)CN[C@@H]5CCOC5)C4)c3F)C2=O)n1` [compound 76, (4R)-4-(3-chloro-2-fluorophenyl)-5-fluoro-2-(4-fluoro-1-methyl-1H-pyrazol-3-yl)-4-methyl-6-{[1-{{[(3R)-oxolan-3-yl]amino}acetyl)azetidin-3-yl]amino}-3,4-dihydro-2,7-naphthyridin-1(2H)-one], the Emax was 59.3% and the EC50 turned out to be 0.0566 µM.
The corresponding values for `C[C@@H](O)C(=O)N1CC(Nc2ncc3c(c2F)[C@@](C)(c2cccc(Cl)c2F)CN(c2nn(C)cc2F)C3=O)C1` [compound 40, (4R)-4-(3-chloro-2-fluorophenyl)-5-fluoro-2-(4-fluoro-1-methyl-1H-pyrazol-3-yl)-6-({1-[(2R)-2-hydroxypropanoyl]azetidin-3-yl}amino)-4-methyl-3,4-dihydro-2,7-naphthyridin-1(2H)-one] are 58.8% and 0.113 µM.
On the same counts, the results for `COCC(C)(O)C(=O)N1CC(Nc2ncc3c(c2F)C(C)(c2cccc(Cl)c2F)CN(c2nn(C)cc2F)C3=O)C1` (single isomer, unassigned) [compound 46] are 111% and 0.0861 µM.
On the same counts, the results for `Cc1c(F)ccc(C2(C)CN(c3ncccc3F)C(=O)c3cnc(NC4CN(C(=O)C5(O)CC5)C4)c(F)c32)c1F` (centres unmarked) [compound 106, 4-(2,4-difluoro-3-methylphenyl)-5-fluoro-2-(3-fluoropyridin-2-yl)-6-{[1-(1-hydroxycyclopropane-1-carbonyl)azetidin-3-yl]amino}-4-methyl-3,4-dihydro-2,7-naphthyridin-1(2H)-one, from P5 (ENANT-2)] are 70.5% and 0.0339 µM.
For `Cn1cc(F)c(N2CC(C)(c3ccc(F)c(Cl)c3F)c3c(cnc(NC4CN(C(=O)[C@@H]5C[C@@H]5F)C4)c3F)C2=O)n1` (single isomer, unassigned) [Example 23], the Emax came out at 91.4% and the EC50 stood at 0.0281 µM.
The corresponding values for `CN(C)c1nc(NC2CN(C(=O)C3(O)CC3)C2)nc2c1C(=O)N(c1ncccc1F)CC2(C)c1cccc(Cl)c1F` (single isomer, unassigned) [Example 38, 8-(3-Chloro-2-fluorophenyl)-4-(dimethylamino)-6-(3-fluoropyridin-2-yl)-2-{[1-(1-hydroxycyclopropane-1-carbonyl)azetidin-3-yl]amino}-8-methyl-7,8-dihydropyrido[4,3-d]pyrimidin-5(6H)-one] are 217% and 0.146 µM.
The corresponding values for `CC1(c2cccc(Cl)c2F)CN(c2ncccc2F)C(=O)c2cnc(NC3CN(C(=O)N4C[C@@H]5C[C@H]4CO5)C3)nc21` (single isomer, unassigned) [compound 88] are 213% and 0.0716 µM.
Turning to `C[C@]1(c2cccc(Cl)c2F)CN(c2ncccc2F)C(=O)c2cnc(NC3CN(C(=O)C4(O)CC4)C3)c(F)c21` [Example 1, (4R)-4-(3-Chloro-2-fluorophenyl)-5-fluoro-2-(3-fluoropyridin-2-yl)-6-{[1-(1-hydroxycyclopropane-1-carbonyl)azetidin-3-yl]amino}-4-methyl-3,4-dihydro-2,7-naphthyridin-1(2H)-one], the Emax is 112% and the EC50 amounted to 0.0336 µM.

The values are drawn from patent US12637461B2, “Compounds for the activation of AMPK” (PFIZER INC., priority 2022, dated 2026).
